Laboratory results: patent US20070088067A1, “Novel amidine compounds for treating microbial infections” (priority 2003, published 2007)
Where a name gives a salt, the structure may show the parent alone. Read-outs that look alike come from different tables or passages of the source.

Columns and labels:
[1] = system: Trypanosoma brucei rhodesiense (T.b.r.); assay: in vitro effectiveness against Trypanosoma brucei rhodesiense; assay type: cell-based
Text: (§1) These compounds can thus be employed as treatments of second-stage human African trypanosomiasis.

[2] = system: Plasmodium falciparum (P.f.); assay: in vitro effectiveness against Plasmodium falciparum; assay type: cell-based
Text: as §1

[3] = system: Trypanosoma brucei rhodesiense (T.b.r.); assay: in vivo effectiveness against T.b.r. (cures); settings: cures / animals treated
Text: as §1

[4] = Trypanosoma brucei, RHODESIENSE

Row | SMILES | IC50 [1, 4] [nM] | IC50 ([2]; Plasmodium falciparum) [nM] | melting point [°C] | In vivo vs. T.b.r. cures [3] | IC50 [1] [nM] | IC50 [2] [nM]
1 | CCOc1cc(-c2ccc(-c3ccc(NC(=N)N)c(OCC)c3)o2)ccc1NC(=N)N [Compound 44, 2,5-Bis(3-ethoxy-4-guanidinophenyl)furan dihydrochloride] | 40 | 14.7 | – | – | – | –
2 | N=C(Nc1ccc(-c2ccc(-c3ccc(NC(=N)c4ccccn4)cc3O)o2)c(O)c1)c1ccccn1 [Compound 43, 2,5-Bis[2-hydroxy-4-(2-pyridylimino)amino]furan Dihydrochloride] | 32 | 5.1 | – | – | – | –
3 | Cc1cc(C(=N)N)ccc1-c1ccc(-c2nc3ccc(C(=N)N)cc3[nH]2)o1 [Compound 45, 2-{2-[5(6)-Amidino]benzimidazolyl}-5-[(4-amidino-2-methyl)-phenyl]-furan trihydochloride] | – | – | – | 2/4 | 9.4 | 147
4 | c1cc(-c2nc3ccc(C4=NCCN4)cc3[nH]2)ccc1CCc1ccc(-c2nc3ccc(C4=NCCN4)cc3[nH]2)cc1 [Compound 24, 4,4′-Bis{2-[-6(2-imidazolino]benzimidazolyl}-1,2-diphenylethanetetrahydrochloride] | – | – | – | – | 393 | 19.6
5 | CSc1cc(-c2ccc(-c3ccc(NC(=N)N)c(SC)c3)o2)ccc1NC(=N)N [Compound 42, 2,5-Bis(4-guanidino-3-thiomethoxyphenyl)furan Dihydrochloride] | 57 | 66 | – | – | – | –

The next lines start with results.

Row | IC50 [1, 4] [nM] | IC50 ([2]; Plasmodium falciparum) [nM] | melting point [°C] | SMILES | In vivo vs. T.b.r. cures [3] | IC50 [1] [nM] | IC50 [2] [nM]
6 | 24 | 9.7 | – | CC(=O)O.N=C(N)c1ccc(-c2cccc(-c3nc4ccc(C(=N)N)cc4[nH]3)n2)cc1 [Compound 36, 2-(5-Amidinobenzimidazol-2-yl)-6-(4-amidinophenyl)pyridine acetate salt] | 1/4 | – | –
7 | 11 | 32 | – | N=C(N)c1ccc(-c2ccc(-c3nc4cc(C(=N)N)ccc4o3)o2)cc1 [Compound 41] | 4/4 | – | –
8 | 21.7 | 25.5 | 158 to 159 | N#Cc1ccc(-c2cccc(C=O)n2)cc1 [Compound 6, 6-(4-Cyanophenyl)pyridine-2-carbaldehyde] | – | – | –
